Data taken from US6919464B1, “Synthetic derivatives of 21-butenyl and related spinosyns” (Dow AgroSciences LLC, priority 2001, dated 2005).

Assays:
Assay type in all cases: in vivo
Heliothis virescens [1] = assay: Tobacco Budworm (Heliothis virescens) topical assay
Protocol: An additional measure of the relative insecticidal activities of the compounds of the invention was generated by using a 1 ug/ul acetone solution of each compound applied at 1 ug/larva of laboratory-reared Heliothis virescens larvae (mean weight of 22 mg). Each compound was applied along the dorsum of each of six larvae. Treated larvae were then held for two days at 21° C., 60% RH in six-well plastic culture plates. Larvae were each supplied with a 1 cm^3 of agar-based lepidoptera diet for sustenance during the two-day post-exposure interval. Percent mortality was determined at the end of a two-day period.

Aphis gossypii = assay: Cotton Aphid (Aphis gossypii) assay, spray on squash seedlings; details: rate 50 ppm, relative to plants sprayed with solvent only; for mortality at 50 ppm: Aphis gossypii, 72 h
Protocol: Insecticidal activities of the compounds of the invention were also evaluated against cotton aphids (Aphis gossyppi) as follows. Summer crookneck squash seedlings at the expanded cotyledon stage are primed to a single cotyledon and infested with cotton aphids 16-24 hours before application of the test material by transfer of infested foliage cut from a stock colony. Immediately prior to spray application of the test material, the transfer foliage is removed from the squash plants. The test material is dissolved at 1 mg/ml in 90:10 acetone:alcohol, then diluted in water containing 0.05% Tween 20 (polyethylene (20) sorbitan monolaurate) to give test solution at a concentration of 50 ppm. The plants were sprayed with the test solution using an atomizing sprayer at 17 psi. Both surfaces of the cotyledons are covered until runnoff, and then allowed to dry. Activity of the compound was determined at three days after treatment. Activity was rated as a percent based on the number of aphids present in plants sprayed with solvent only.

Heliothis virescens [2] = assay: Tobacco Budworm (Heliothis virescens) feeding assay, cotton leaf-dip; details: second instar larvae
From the text: To compare insecticidal activities of compounds of the invention against second instar larval Heliothis virescens leaf-dip bioassay was used. Cotton cotyledon leaves were dipped in a test solution made up of the compound dissolved in acetone: Millipore water (2:1) at rates of 400 ppm to 1.56 ppm. Each cotyledon was placed individually on top of a moistened (distilled water) cotton ball in the bottom of a 1 oz plastic cup and allowed to dry (one hour). After drying, a single laboratory-reared second instar Heliothis virescens larva (mean weight 15 mg.) was placed on the treated leaf and the cup sealed with a lid, and held at 27° C. for four days. Percent mortality was determined at the end of the holding period.

[3] = Heliothis virescens, rate 400 ppm, 96 h
[4] = Heliothis virescens, rate 1.56 ppm, 96 h

CCCCC1CCCC(OC2CCC(N(C)C)C(C)O2)C(C)C(=O)C2=CC3C4CC(OC5OC(C)C(OCC)C(OCC)C5OC)CC4CCC3C2CC(=O)O1 (stereo not drawn) [Compound B2, 5,6,22,23-tetrahydro-for-(3′,4′-bis-O-ethylrham)-I]
Tobacco Budworm Typical (48 h) Mortality (%) (Heliothis virescens [1]; rate 1 µg/larva, 48 h): 83% | Cotton Aphid mortality (72 h) Mortality (%) (Aphis gossypii): 97%

COC1C(C)OC(OC2CC3CCC4C5CC(=O)OC(CCC(C)O)CCCC(OC6CCC(N(C)C)C(C)O6)C(C)C(=O)C5=CC4C3C2)C(OC)C1OC (stereo not drawn) [Compound B17]
Tobacco Budworm Typical (48 h) Mortality (%) (Heliothis virescens [1]; rate 1 µg/larva, 48 h): 17% | Cotton Aphid mortality (72 h) Mortality (%) (Aphis gossypii): 11%

CCCCC1CCCC(OC2CCC(N(C)C)C(C)O2)C(C)C(=O)C2=CC3C4CC(OC5OC(C)C(OC)C(OCCC)C5OC)CC4CCC3C2CC(=O)O1 (stereo not drawn) [Compound A16]
Tobacco Budworm Feeding (96 h) Mortality (%) (Heliothis virescens [2]; rate 6.25 ppm): 100% | Cotton Aphid mortality (72 h) Mortality (%) (Aphis gossypii): 100%

CCCCOC(C)/C=C/C1CCC[C@H](O[C@H]2CC[C@H](N(C)C)[C@@H](C)O2)[C@@H](C)C(=O)C2=CC3C(C=CC4C[C@@H](O[C@@H]5O[C@@H](C)[C@H](OC)[C@@H](OCCCC)[C@H]5OC)CC43)C2CC(=O)O1 (stereo partly drawn) [Compound A21, (24-O-n-butyl)-for-(3′-O-n-butylrham)-I]
mortality at 400 ppm (Heliothis virescens [2]; [3]): 100% | mortality at 50 ppm (Aphis gossypii): 59%

CCC=CC1CCCC(OC2CCC(N(C)CC)C(C)O2)C(C)C(=O)C2=CC3C(C=CC4CC(OC5OC(C)C(OC)C(OC)C5OC)CC43)C2CC(=O)O1 (stereo not drawn) [Compound D1]
Tobacco Budworm Typical (48 h) Mortality (%) (Heliothis virescens [1]; rate 1 µg/larva, 48 h): 83%

CC=CC(CC(=O)OC)C1CCCC(OC2CCC(N(C)C)C(C)O2)C(C)C(=O)C2=CC3C(C=CC4CC(OC5OC(C)C(OC)C(OCC)C5OC)CC43)C2CC(=O)O1 (stereo not drawn) [Compound A27]
Tobacco Budworm Typical (48 h) Mortality (%) (Heliothis virescens [1]; rate 1 µg/larva, 48 h): 100% | Cotton Aphid mortality (72 h) Mortality (%) (Aphis gossypii): 33%

CCC=CC1CCCC(OC2CCC(N(C)C)C(C)O2)C(C)C(=O)C2=CC3C4CC(OC5OC(C)C(OC)C(OCCC)C5OC)CC4CCC3C2CC(=O)O1 (stereo not drawn) [Compound A23]
Tobacco Budworm Feeding (96 h) Mortality (%) (Heliothis virescens [2]; rate 400 ppm): 100% | Cotton Aphid mortality (72 h) Mortality (%) (Aphis gossypii): 100%

CCOC(C)/C=C/[C@H]1CCC[C@H](OC2CC[C@H](N(C)C)[C@@H](C)O2)[C@@H](C)C(=O)C2=CC3C(C=CC4C[C@@H](O[C@@H]5O[C@@H](C)[C@H](OC)[C@@H](OC)[C@H]5OC)CC43)C2CC(=O)O1 (stereo partly drawn) [Compound A4, (24-O-thyl) for-rham-I]
mortality at 400 ppm (Heliothis virescens [2]; [3]): 100% | mortality at 50 ppm (Aphis gossypii): 99%

CCCC[C@H]1CCC[C@H](OC2CC[C@H](N(C)C)[C@@H](C)O2)[C@@H](C)C(=O)C2=CC3C4C[C@H](O[C@@H]5O[C@@H](C)[C@H](OC)[C@@H](OC)[C@H]5OC)CC4CCC3C2CC(=O)O1 (stereo partly drawn) [Compound B3, 5,6,22,23-tetrahydro-for-rham-I]
mortality at 6.25 ppm (Heliothis virescens [2]; Heliothis virescens, rate 6.25 ppm, 96 h): 100% | Tobacco Budworm Typical (48 h) Mortality (%) (Heliothis virescens [1]; in vivo): 100% | mortality at 50 ppm (Aphis gossypii): 53%

CC/C=C/[C@H]1CCC[C@H](OC2CC[C@H](N(C)C)[C@@H](C)O2)[C@@H](C)C(=O)C2=CC3C(C=CC4C[C@@H](O[C@@H]5O[C@@H](C)[C@H](OC)[C@@H](OC)[C@H]5OCC)CC43)C2CC(=O)O1 (stereo partly drawn) [Compound A1, for-(2′-O-ethylrham)-I]
mortality at 1.56 ppm (Heliothis virescens [2]; [4]): 100% | mortality at 50 ppm (Aphis gossypii): 87%

CC/C=C/[C@H]1CCC[C@H](OC2CC[C@H](N(C)C)[C@@H](C)O2)[C@@H](C)C(=O)C2=CC3C(C=CC4C[C@@H](O[C@@H]5O[C@@H](C)[C@H](OCC)[C@@H](OCC)[C@H]5OC)CC43)C2CC(=O)O1 (stereo partly drawn) [Compound A3, for-(3′,4′-bis-O-ethylrham)-I]
Tobacco Budworm Typical (48 h) Mortality (%) (Heliothis virescens [1]; in vivo): 67%

CCCCOC1C(OC)C(C)OC(OC2CC3CCC4C5CC(=O)OC(CCCC)CCCC(OC6CCC(N(C)C)C(C)O6)C(C)C(=O)C5=CC4C3C2)C1OC (stereo not drawn) [Compound A17]
Tobacco Budworm Feeding (96 h) Mortality (%) (Heliothis virescens [2]; rate 6.25 ppm): 10% | Tobacco Budworm Typical (48 h) Mortality (%) (Heliothis virescens [1]; rate 1 µg/larva, 48 h): 100% | Cotton Aphid mortality (72 h) Mortality (%) (Aphis gossypii): 100%

CCCOC(C)C=CC1CCCC(OC2CCC(N(C)C)C(C)O2)C(C)C(=O)C2=CC3C(C=CC4CC(OC5OC(C)C(OC)C(OCCC)C5OC)CC43)C2CC(=O)O1 (stereo not drawn) [Compound A20]
Tobacco Budworm Feeding (96 h) Mortality (%) (Heliothis virescens [2]; rate 400 ppm): 100% | Cotton Aphid mortality (72 h) Mortality (%) (Aphis gossypii): 99%

CC=CC(CC(=O)N(C)C)C1CCCC(OC2CCC(N(C)C)C(C)O2)C(C)C(=O)C2=CC3C(C=CC4CC(OC5OC(C)C(OC)C(OCC)C5OC)CC43)C2CC(=O)O1 (stereo not drawn) [Compound A28]
Tobacco Budworm Feeding (96 h) Mortality (%) (Heliothis virescens [2]; rate 400 ppm): 100% | Cotton Aphid mortality (72 h) Mortality (%) (Aphis gossypii): 48%

CCCCCOC1C(OC)C(C)OC(OC2CC3CCC4C5CC(=O)OC(CCCC)CCCC(OC6CCC(N(C)C)C(C)O6)C(C)C(=O)C5=CC4C3C2)C1OC (stereo not drawn) [Compound A18]
Tobacco Budworm Feeding (96 h) Mortality (%) (Heliothis virescens [2]; rate 1.56 ppm): 20% | Tobacco Budworm Typical (48 h) Mortality (%) (Heliothis virescens [1]; rate 1 µg/larva, 48 h): 33% | Cotton Aphid mortality (72 h) Mortality (%) (Aphis gossypii): 91%

CC/C=C/[C@H]1CCC[C@H](OC2CC[C@H](N(C)C)[C@@H](C)O2)[C@@H](C)C(=O)C2=CC3C(C=CC4C[C@@H](O[C@@H]5O[C@@H](C)[C@H](OC)[C@@H](OCC)[C@H]5OC)CC43)C2CC(=O)O1 (stereo partly drawn) [Compound A2, for-(3′-O-ethylrham)-I]
mortality at 1.56 ppm (Heliothis virescens [2]; [4]): 100% | Tobacco Budworm Typical (48 h) Mortality (%) (Heliothis virescens [1]; in vivo): 100% | mortality at 50 ppm (Aphis gossypii): 97%

CC/C=C/[C@H]1CCC[C@H](OC2CC[C@H](N(C)C)[C@@H](C)O2)[C@@H](C)C(=O)C2=CC3C(C=CC4C3C[C@H](O[C@@H]3O[C@@H](C)[C@H](OC)[C@@H](OC)[C@H]3OC)[C@H]4OCC)C2CC(=O)O1 (stereo partly drawn) [Compound A5, (8-O-ethyl)-for-rham-III]
mortality at 400 ppm (Heliothis virescens [2]; [3]): 100% | mortality at 50 ppm (Aphis gossypii): 53%

CC/C=C/[C@H]1CCC[C@H](OC2CC[C@H](N(C)C)[C@@H](C)O2)[C@@H](C)C(=O)C2=CC3C(C=CC4C[C@@H](O[C@@H]5O[C@@H](C)[C@H](OC)[C@@H](OCCC)[C@H]5OC)CC43)C2CC(=O)O1 (stereo partly drawn) [Compound A6, for-(3′-O-n-propylrham)-I]
Tobacco Budworm Typical (48 h) Mortality (%) (Heliothis virescens [1]; in vivo): 100% | mortality at 50 ppm (Aphis gossypii): 54%

CC/C=C/C1CCC[C@H](O[C@H]2CC[C@H](N(C)C=O)[C@@H](C)O2)[C@@H](C)C(=O)C2=CC3C(C=CC4C[C@@H](O[C@@H]5O[C@@H](C)[C@H](OC)[C@@H](OC)[C@H]5OC)CC43)C2CC(=O)O1 (stereo partly drawn) [Compound D4, (N-formyl)-for-rham-I]
mortality at 400 ppm (Heliothis virescens [2]; [3]): 100% | mortality at 50 ppm (Aphis gossypii): 92%

CCC=CC1CCCC(OC2CCC(N(C)C)C(C)O2)C(C)C(=O)C2=CC3C4CC(OC5OC(C)C(OC)C(OCC)C5OC)CC4CCC3C2CC(=O)O1 (stereo not drawn) [Compound A22]
Tobacco Budworm Feeding (96 h) Mortality (%) (Heliothis virescens [2]; rate 400 ppm): 100% | Cotton Aphid mortality (72 h) Mortality (%) (Aphis gossypii): 99%

CC/C=C/[C@H]1CCC[C@H](OC2CC[C@H](N(C)C)[C@@H](C)O2)[C@@H](C)C(=O)C2=CC3C4C[C@H](O[C@@H]5O[C@@H](C)[C@H](OC)[C@@H](OC)[C@H]5OC)CC4C4OC4C3C2CC(=O)O1 (stereo partly drawn) [Compound C1, 5,6-epoxy-for-rham-I]
mortality at 400 ppm (Heliothis virescens [2]; [3]): 100% | mortality at 50 ppm (Aphis gossypii): 95%

CCOC(C)C=CC1CCCC(OC2CCC(N(C)C)C(C)O2)C(C)C(=O)C2=CC3C(C=CC4CC(OC5OC(C)C(OC)C(OCC)C5OC)CC43)C2CC(=O)O1 (stereo not drawn) [Compound A19]
Tobacco Budworm Feeding (96 h) Mortality (%) (Heliothis virescens [2]; rate 400 ppm): 100% | Cotton Aphid mortality (72 h) Mortality (%) (Aphis gossypii): 99%

CCC=CC1CCCC(OC2CCC(N(C)C)C(C)O2)C(C)C(=O)C2=CC3C4CC(OC5OC(C)C(OC)C(OCCCC)C5OC)CC4CCC3C2CC(=O)O1 (stereo not drawn) [Compound A24]
Tobacco Budworm Feeding (96 h) Mortality (%) (Heliothis virescens [2]; rate 400 ppm): 100% | Cotton Aphid mortality (72 h) Mortality (%) (Aphis gossypii): 99%

5,6,22,23-tetrahydro-for-(3′,4′-methylenedioxyrham)-I [Compound A26]
Tobacco Budworm Typical (48 h) Mortality (%) (Heliothis virescens [1]; in vivo): 83%

CCOC(C)CCC1CCCC(OC2CCC(N(C)C)C(C)O2)C(C)C(=O)C2=CC3C4CC(OC5OC(C)C(OC)C(OC)C5OC)CC4CCC3C2CC(=O)O1 (stereo not drawn) [Compound A25]
Tobacco Budworm Typical (48 h) Mortality (%) (Heliothis virescens [1]; rate 1 µg/larva, 48 h): 83% | Cotton Aphid mortality (72 h) Mortality (%) (Aphis gossypii): 79%

CCCC[C@H]1CCC[C@H](O[C@H]2CC[C@H](N(C)C)[C@@H](C)O2)[C@@H](C)C(=O)C2=CC3C4C[C@H](O[C@@H]5O[C@@H](C)[C@H](O)[C@@H](OC)[C@H]5OC)CC4CCC3C2CC(=O)O1 (stereo partly drawn) [Compound A14, 5,6,22,23-tetrahydro for-(4′-O-desmethylrham)-I]
Tobacco Budworm Typical (48 h) Mortality (%) (Heliothis virescens [1]; in vivo): 83% | mortality at 50 ppm (Aphis gossypii): 92%

CCCCC1CCCC(OC2CCC(N(C)C)C(C)O2)C(C)C(=O)C2=CC3C4CC(OC5OC(C)C(OC)C(OCC)C5OC)CC4CCC3C2CC(=O)O1 (stereo not drawn) [Compound A15]
Tobacco Budworm Feeding (96 h) Mortality (%) (Heliothis virescens [2]; rate 6.25 ppm): 100% | Cotton Aphid mortality (72 h) Mortality (%) (Aphis gossypii): 100%

CCC=CC1CCCC(OC2CCC(N(C)C(C)=O)C(C)O2)C(C)C(=O)C2=CC3C(C=CC4CC(OC5OC(C)C(OC)C(OC)C5OC)CC43)C2CC(=O)O1 (stereo not drawn) [Compound D5]
Tobacco Budworm Feeding (96 h) Mortality (%) (Heliothis virescens [2]; rate 400 ppm): 100% | Cotton Aphid mortality (72 h) Mortality (%) (Aphis gossypii): 92%
